Source: patent publication US20180133211A1, “METHODS AND MATERIALS FOR PROMOTING BONE FORMATION” (Mayo Foundation for Medical Education and Research, priority 2015, published 2018)

How the values were obtained:
mouse calvarial explants = test: RT-qPCR mRNA expression in calvarial explants; assay type: cell-based; settings: calvarial explants from neo-natal and adult mice, 3 μM, 12 days ex vivo
Procedure: Calvariae from 2 to 3-day-old and from 7-week old C57BL/6 mice were dissected aseptically. The calvarial bone explants were cultured in 48-well plates in α-MEM (Biochrom) containing 10% FCS (Biochrom), 50 μg/mL ascorbic acid (Sigma-Aldrich), 5 mM β-glycerophosphate (Sigma-Aldrich), and 10 μg/mL gentamicin (Sigma-Aldrich). The day after dissection, medium was changed, and a part of the explants was treated with 3 μM L- or DL-SFN for 12 days. Thereafter, one part of the calvariae were fixed for 1 hour in 4% para-formaldehyde (PFA), and mineralization was measured by Alizarin Red S stain (Sigma-Aldrich). For this purpose, Alizarin Red S dye was extracted using 10% cetylpyridinium chloride (CPC) in 10 mM sodiumphosphate (pH=7.0) for 45 minutes at room temperature. Alizarin Red S absorbance was measured at 562 nm in a multi-plate reader (Tecan, Maennedorf, Switzerland) and normalized to total protein amount measured by bicinchoninic acid assay (Thermo Fisher Scientific, Waltham, Mass., USA). […]
Total RNA was extracted using the SV Total RNA Isolation kit (Promega) following the supplier's instructions. cDNA was synthesized from about 0.5 μg RNA using the First Strand cDNA Synthesis kit (Roche) as described by the supplier. […] All RT-qPCR assays were performed in triplicate, and expression was evaluated using the comparative quantification method (Pfaffl, Nucleic Acids Res., 29:e45 (2001)).

[1] = system: Runx2 protein in MC3T3-E1 cells; test: Runx2 immunoblotting; assay type: cell-based, mouse; settings: MC3T3-E1, 3 μM, after both 24 hours and 14 days
Procedure: Whole cell protein extracts were prepared using SDS sample buffer (2% SDS, 100 mM β-mercaptoethanol and 125 mM Tris-HCl, pH=6.8) and heated at 95° C. for 5 minutes. To obtain supernatant protein extracts, cell medium was collected, and proteins were precipitated with 50% trichloroacetic acid at 4° C. for 1 hour, concentrated by centrifugation, neutralized with PBS, and dissolved in SDS sample buffer.
For immunoblotting analysis, 15 μg of protein extracts were separated on 10% SDS poly-acryl amide gels, transferred to nitrocellulose membranes (Millipore), and blocked overnight with 10% blocking reagent (Roche) in TN buffer (50 mM Tris and 125 mM NaCl, pH=8.0). The following primary antibodies were used: rabbit, anti-Runx2 (sc-10758, Santa Cruz Biotechnologies, Santa Cruz, Calif.) and rabbit, anti-β-Actin (#4967, Cell Signaling, Danvers, Mass., USA). Washing was performed with TN buffer containing 0.01% Tween. Binding of the secondary antibody (anti-rabbit IgG/anti-mouse IgG horseradish peroxidase-coupled) (Roche) diluted 1:10,000 in 10% blocking solution followed by detection with the BM chemo-luminescence immunoblotting kit (Roche) was carried out as described by the supplier. Chemo-luminescence was measured with an image acquisition system (Vilber Lourmat, Marne-la-Vallée, France). Measurements are given as means of 3 immuno-blots, and representative blots are shown.

[2] = system: H3K27me3 marks in MC3T3 cells; test: H3K27me3 ChIPSeq in MC3T3 cells; assay type: cell-based, mouse; settings: MC3T3, 5 μM GSK126, 24 hours
Procedure: MC3T3 (10,000 cells/cm^2) were plated in 10 cm plates in maintenance medium. Two days later, 5 μM GSK126 or vehicle were added to the cells in osteogenic medium. Twenty four hours later, cells were harvested by trypsin, and a chromatin immunoprecipitation assay (ChIP) was performed as described elsewhere (Dudakovic et al., J. Biol. Chem., 288:28783-28791 (2013)) using H3K27Me3 (17-622, Lot 2213948, Millipore) and IgG (PP64B, Lot 2056666A, Millipore) antibodies.
Sequencing libraries were prepared and massively parallel high throughput sequencing was performed on Illumina HiSeq2000 system. The alignment, quality assessment, peak calling, and visualization were performed with the HiChIP analysis pipeline (Yan et al., BMC Bioinformatics, 15:280 (2014)). Briefly, the 50 base-pair reads were aligned to the mm10 reference genome using Burrows-Wheeler Aligner. Duplicates were marked with Picard (http://broadinstitute.github.io/picard), and read-pairs without a unique alignment were filtered out using SAMTools (Li et al., Bioinformatics, 25:2078-2079 (2009)). Duplicates were filtered out using a custom script, and pairs with one or both ends mapped uniquely were retained. Enriched regions were identified using SICER (Zang et al., Bioinformatics, 25:1952-1958 (2009)).

| Compound | Tnfsf11 expression (mouse calvarial explants) | Runx2 protein expression [1] | deposition of H3K27me3 marks near transcriptional start sites (TSSs) across the genome [2] |
| --- | --- | --- | --- |
| C[S+]([O-])CCCCN=C=S (racemic) [DL-SFN] | decreased | significant increase |  |
| CC[C@H](C)n1cc(C)c2c(C(=O)NCc3c(C)cc(C)[nH]c3=O)cc(-c3ccc(N4CCNCC4)nc3)cc21 [GSK126, N-[(1,2-dihydro-4,6-dimethyl-2-oxo-3-pyridinyl)methyl]-3-methyl-1-[(1S)-1-methylpropyl]-6-[6-(1-piperazinyl)-3-pyridinyl]-1H-indole-4-carboxamide] |  |  | decreased |
